Results published in patent publication US20240261333A1, “NOVEL TARGETS FOR ENHANCING ANTI-TUMOR IMMUNITY” (THE BROAD INSTITUTE, INC., priority 2021, published 2024).
pKi: −log10 of the molar value.

How the values were obtained:
[1] = target: T1, human endoplasmic reticulum a-1,2-mannosidase I (Homo sapiens, UniProt Q9UKM7); settings: human enzyme; cited from earlier work
T1 sequence (Q9UKM7 1-699): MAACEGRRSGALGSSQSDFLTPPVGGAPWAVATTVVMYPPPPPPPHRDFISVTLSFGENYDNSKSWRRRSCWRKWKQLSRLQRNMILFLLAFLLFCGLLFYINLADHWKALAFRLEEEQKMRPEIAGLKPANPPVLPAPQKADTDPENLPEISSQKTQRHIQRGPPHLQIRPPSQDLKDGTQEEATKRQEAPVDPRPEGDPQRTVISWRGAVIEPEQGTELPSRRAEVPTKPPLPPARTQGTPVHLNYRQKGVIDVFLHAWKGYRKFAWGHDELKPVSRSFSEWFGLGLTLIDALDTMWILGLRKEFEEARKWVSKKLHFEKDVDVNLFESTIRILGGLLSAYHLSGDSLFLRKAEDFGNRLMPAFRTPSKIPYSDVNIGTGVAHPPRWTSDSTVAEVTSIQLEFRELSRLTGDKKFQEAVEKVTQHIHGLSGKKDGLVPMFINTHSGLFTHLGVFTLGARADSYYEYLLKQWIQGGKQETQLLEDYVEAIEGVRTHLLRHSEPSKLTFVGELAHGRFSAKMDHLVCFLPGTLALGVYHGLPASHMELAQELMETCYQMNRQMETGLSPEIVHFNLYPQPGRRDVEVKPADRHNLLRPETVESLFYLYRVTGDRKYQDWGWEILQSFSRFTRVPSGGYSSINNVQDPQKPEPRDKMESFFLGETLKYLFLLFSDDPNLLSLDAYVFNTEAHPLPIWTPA

[2] = tested on: A375 cells overexpressing B3GNT2; test: Binding of recombinant T cell proteins to A375 cells, flow cytometry; assay type: cell-based, human
Method: (§1) For glycosylation inhibition, cells were treated with 20 μg/mL Kifunensine (Cayman Chemical 10009437) or 2 mM Benzyl 2-acetamido-2-deoxy-alpha-D-galactopyranoside (BAG; Millipore Sigma B4894-100MG) for 48 h to inhibit N- and O-glycosylation respectively unless otherwise indicated. For MCL1 inhibition, cells were treated with 1-10 μM of S63845 (Selleck Chemicals S8383) or AZD5991 (Selleck Chemicals S8643) for 4 h before incubation with T cells. Both glycosylation and MCL1 inhibitors were maintained at indicated concentrations during co-culture with T cells.
Per condition, 5×10^5 cells were pelleted at 200×g for 5 min and washed once with PBS. Cell were fixed in 4% Formaldehyde in PBS at 4° C. for 10 mins. Cells were washed twice with PBS and resuspended in PBS with 25 μg/mL recombinant Fc chimera proteins [PVRIG (R&D Systems 9365-PV-050), CD226 (R&D Systems 666-DN-050), NKG2D (R&D 1299-NK-050), TREML2 (R&D Systems 3259-TL-050), CD2 (R&D Systems 1856-CD-050), CD96 (R&D Systems 9360-CD-050), TIGIT (BPS Bioscience 71186), CD27 (BPS Bioscience 71176), or 4-1BB (TNFRSF9; Sino Bio 10041-H03H)], 0.1 μg/mL HLA-A2:NY-ESO-1 Fab (Stewart-Jones et al., 2009), 5 μg/mL Fas antibody (Millipore Sigma 05-201), 25 μg/mL TNFRSF10B antibody (Novus Biologicals NB100-56618, 1:200), or Dylight 649 labeled Tomato Lectin (Vector Laboratories DL-1178, 1:100). Cells were incubated at 4° C. for 1 h. Cells were washed twice with PBS and resuspended in PBS with the appropriate secondary antibody [IgG Fc PE (Thermo Fisher Scientific 12-4998-82, 1:50), His Tag Alexa Fluor 647 (Thermo Fisher Scientific MA121315A647), mouse Alexa Fluor 568 (Thermo Fisher Scientific A-11031), or rabbit Alexa Fluor 647 (Thermo Fisher Scientific A-21244)]. Cells stained with Tomato Lectin were not incubated with additional secondary antibodies. […] For each sample, 10,000 cells were analyzed on a CytoFLEX Flow Cytometer (Beckman Coulter) and quantified with FlowJo (FlowJo). For each experiment, median fluorescence values for 3 biological replicates were compared to determine statistical significance.

[3] = tested on: ESO T cells co-cultured with A375 cells; test: IFNγ ELISA in culture media of the T cell cytotoxicity assay; assay type: cell-based, human; settings: B3GNT2-overexpressing A375 pretreated with inhibitor, E:T ratio of 3; kifunensine having a stronger effect
Method: Expanded T cells were thawed and maintained in culture media for 8-10 h before incubation with cancer cells. Cancer cells were seeded in 96-well plates and allowed to attach for 3-4 h before T cells were added at the appropriate effector to target cell (E:T) ratio. Paired controls with no T cells added were included for each condition. After 18 h, cancer cells were washed twice with PBS to remove T cells, passaged, and cultured for 2 days. Primary patient-derived cell models were not passaged after T cell co-culture. Viability was measured using CellTiter-Glo (Promega G7571). For each E:T ratio, percent survival was calculated as viability of the cells incubated with T cells divided by viability of the paired control that was not incubated with T cells. […]
To challenge cells with cytokines, cells were incubated with Interferon-γ (IFNγ; Cell Signaling Technology 80385S), FasL (AdipoGen AG-40B-0130-3010), TRAIL (R&D Systems 375-TL-010), or TNF-α (AdipoGen AG-40B-0019-3010) for 24 h. […] Cell viability was measured using CellTiter-Glo (Promega G7571) and protein was harvested for Western blots. […] IFNγ in the cell culture media of the T cell cytotoxic assay was quantified using an ELISA kit (Thermo Fisher Scientific KHC4021). […]

[4] = tested on: A375 (NY-ESO-1+, HLA-A2+) melanoma cells; test: T cell cytotoxicity assay (CellTiter-Glo), A375 against ESO T cells; assay type: cell-based, human
Method: Expanded T cells were thawed and maintained in culture media for 8-10 h before incubation with cancer cells. Cancer cells were seeded in 96-well plates and allowed to attach for 3-4 h before T cells were added at the appropriate effector to target cell (E:T) ratio. Paired controls with no T cells added were included for each condition. After 18 h, cancer cells were washed twice with PBS to remove T cells, passaged, and cultured for 2 days. Primary patient-derived cell models were not passaged after T cell co-culture. Viability was measured using CellTiter-Glo (Promega G7571). For each E:T ratio, percent survival was calculated as viability of the cells incubated with T cells divided by viability of the paired control that was not incubated with T cells. For example, CD274-overexpressing melanoma cells that were co-cultured with ESO T cells were compared to CD274-overexpressing melanoma cells that were cultured without T cells in parallel. As an alternative cytotoxicity assay, A375 cells stably expressing Gaussia luciferase were co-cultured with ESO T cells. At each time point, 10% of cell culture media was used for the Gaussia luciferase assay (Targeting Systems GAR-2B) to directly measure cytotoxicity.
as §1

O=C1N[C@@H]2[C@@H](O)[C@@H](O)[C@H](O)[C@@H](CO)N2C1=O [kifunensine]
pKi [1]: 6.89
Binding of recombinant T cell proteins to A375 cells ([2]; B3GNT2-overexpressing A375 treated with inhibitor, CD2, 4-1BB, TREML2, NKG2D): rescued the reduction in T cell protein binding
HLA-A2:NY-ESO-1 antibody binding to A375 cells ([2]; B3GNT2-overexpressing A375 treated with kifunensine): further reduced binding
T cell IFNγ secretion [3]: increased T cell IFNγ secretion
Cell survival against T cell cytotoxicity, A375 ([4]; A375 treated with small molecule inhibitor): reduced survival
Cell survival against T cell cytotoxicity ([4]; B3GNT2-overexpressing A375 pretreated with inhibitor, E:T ratio of 3, kifunensine having a stronger effect): reduced A375 survival
